This is an account of results in ChEMBL document CHEMBL1154586, “Two new acetylenic derivatives and a new meroditerpenoid from a Taiwanese marine sponge Strongylophora durissima” (J Nat Prod, 2000).

Calls of active or inactive are those of the source. The calls are words filed in the database; no cut-off is given here.

In this assay the test system is NUGC. The assay can be described thus: Cytotoxicity against human NUGC cells at 10 uM. The format is functional, cell-based.

In the case of `C#CC(O)/C=C/CCCCCCCCC/C=C\CCCCCCCCC/C=C/C(O)C#C` (configuration not stated), the outcome was Active.
Take `C#CC(O)/C=C/CCCCCCCCCCCCC#CCCCCCCCCCCC#CC#CCO` (configuration not stated): the result was Active.
